Values quoted from earlier work, collected in article PMC3322358 (Chemistry & biology, 2008).

Tested on: CFTR
Settings: ref Muanprasat et al., 2004

O=C(CNc1ccc2ccccc2c1)N/N=C/c1cc(Br)c(O)c(Br)c1O [GlyH-101]
time constant of CFTR channel block: 8 to 10 ms
